The source of these data is patent publication US20240024333A1, “USE OF SMALL MOLECULE FAK ACTIVATORS TO PROMOTE MUCOSAL HEALING” (Regents of the University of Minnesota, priority 2020, published 2024).

SMILES strings stand for the structures. Entries after “also recorded” stand apart in the source; their conditions may differ. Read-outs that look alike come from different tables or passages of the source.

The conditions of data set [1]: over 8 weeks; cited from earlier work.
Data set [2] has as its target T1, Src (Homo sapiens, UniProt P12931).
T1 construct: endogenous in cells; host or cells: Caco-2
Put plainly: Src activation in intact cells. It is filed as cell-based.

In data set [3] the target is T2, FAK (Homo sapiens, UniProt Q05397).
T2 construct: endogenous in cells; host or cells: Caco-2 (human, ATCC)
T2 sequence (Q05397 whole entry): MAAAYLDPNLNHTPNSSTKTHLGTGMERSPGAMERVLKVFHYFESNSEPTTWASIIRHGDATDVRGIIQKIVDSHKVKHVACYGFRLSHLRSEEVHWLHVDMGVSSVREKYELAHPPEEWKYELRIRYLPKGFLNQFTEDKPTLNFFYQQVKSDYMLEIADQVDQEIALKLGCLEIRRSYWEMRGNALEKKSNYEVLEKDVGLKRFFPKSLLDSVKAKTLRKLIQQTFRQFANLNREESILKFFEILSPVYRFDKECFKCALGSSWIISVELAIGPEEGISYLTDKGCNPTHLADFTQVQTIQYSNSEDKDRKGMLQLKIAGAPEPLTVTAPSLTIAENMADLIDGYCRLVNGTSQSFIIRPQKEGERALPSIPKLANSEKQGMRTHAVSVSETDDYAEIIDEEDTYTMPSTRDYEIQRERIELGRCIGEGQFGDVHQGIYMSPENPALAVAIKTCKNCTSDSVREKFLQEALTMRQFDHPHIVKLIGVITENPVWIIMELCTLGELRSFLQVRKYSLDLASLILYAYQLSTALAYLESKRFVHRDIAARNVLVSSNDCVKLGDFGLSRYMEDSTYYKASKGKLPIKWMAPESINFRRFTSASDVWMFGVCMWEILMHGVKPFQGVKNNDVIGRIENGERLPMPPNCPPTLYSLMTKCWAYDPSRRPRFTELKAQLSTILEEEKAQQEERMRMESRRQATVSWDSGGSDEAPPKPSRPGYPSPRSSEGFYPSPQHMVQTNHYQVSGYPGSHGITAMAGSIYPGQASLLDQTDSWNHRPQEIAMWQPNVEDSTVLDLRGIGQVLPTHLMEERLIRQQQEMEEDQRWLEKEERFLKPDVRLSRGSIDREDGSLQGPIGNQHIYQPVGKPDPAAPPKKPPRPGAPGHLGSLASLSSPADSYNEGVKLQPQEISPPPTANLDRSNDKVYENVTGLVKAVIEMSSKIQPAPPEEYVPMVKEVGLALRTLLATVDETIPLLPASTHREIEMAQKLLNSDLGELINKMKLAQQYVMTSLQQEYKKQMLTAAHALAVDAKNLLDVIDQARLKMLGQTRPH
Put plainly: Cell-based FAK-Tyr-397 activation (Western blot, Caco-2 cells). The following applies: for FAK activation / FAK-Tyr-397 phosphorylation (in words): vs. DMSO vehicle control; for FAK-Tyr-397/FAK fold change: Cell-based FAK-Tyr-397 activation. Here is the method:
Human Caco-2 cells were from ATCC (Manassas, VA) and maintained in Dulbecco's Modified Essential Eagle's Medium supplemented with 10% FBS as described by us previously 25. 80-90% confluent Caco-2 cells were seeded into cell culture plates pacificated with 1% heat inactivated bovine serum albumin to prevent adhesion and avoid adhesion-associated background FAK activation. Suspended cells were then treated with DMSO (0.1%) or small molecules for 1 hour before harvesting for Western blotting.
Cells were lysed and protein concentration was determined via bicinchoninic acid protein assay (Thermo Fisher, Rockford, IL). […] Images were taken using a LICOR-Odyssey-Fc imaging system (LI-COR Biosciences, Lincoln, NE).
Background: In western blotting, separated proteins are transferred to a membrane and probed.

The subject of data set [4] is intestinal mucosal ulcers. Put plainly: Intestinal mucosal healing in vivo (model not given). Also noted: species or system mice. The following applies: mouse.
Data set [5] deals with Caco-2 cells. Put plainly: Caco-2 monolayer wound closure assay. The class given is cell-based, human. The following applies: for monolayer wound closure / epithelial sheet migration (in words): in vitro, 24 hours. The method, then: Caco-2 cells were seeded at 75-80% confluence into collagen I coated 6-well plates. When the cells reached 100% confluence, wounds were made in the monolayers with non-barrier autoclaved tips. Wound images were captured using an inverted light microscope (OLYMPUS CK2, Center Valley, PA) at 0 hours and 24 hours after treatment with DMSO or small molecules. Wound areas were measured with Image J software.

For data set [6], the target named is T3, Pyk2 (Homo sapiens, UniProt Q14289).
T3 construct: endogenous in cells; host or cells: Caco-2
T3 sequence (Q14289 whole entry): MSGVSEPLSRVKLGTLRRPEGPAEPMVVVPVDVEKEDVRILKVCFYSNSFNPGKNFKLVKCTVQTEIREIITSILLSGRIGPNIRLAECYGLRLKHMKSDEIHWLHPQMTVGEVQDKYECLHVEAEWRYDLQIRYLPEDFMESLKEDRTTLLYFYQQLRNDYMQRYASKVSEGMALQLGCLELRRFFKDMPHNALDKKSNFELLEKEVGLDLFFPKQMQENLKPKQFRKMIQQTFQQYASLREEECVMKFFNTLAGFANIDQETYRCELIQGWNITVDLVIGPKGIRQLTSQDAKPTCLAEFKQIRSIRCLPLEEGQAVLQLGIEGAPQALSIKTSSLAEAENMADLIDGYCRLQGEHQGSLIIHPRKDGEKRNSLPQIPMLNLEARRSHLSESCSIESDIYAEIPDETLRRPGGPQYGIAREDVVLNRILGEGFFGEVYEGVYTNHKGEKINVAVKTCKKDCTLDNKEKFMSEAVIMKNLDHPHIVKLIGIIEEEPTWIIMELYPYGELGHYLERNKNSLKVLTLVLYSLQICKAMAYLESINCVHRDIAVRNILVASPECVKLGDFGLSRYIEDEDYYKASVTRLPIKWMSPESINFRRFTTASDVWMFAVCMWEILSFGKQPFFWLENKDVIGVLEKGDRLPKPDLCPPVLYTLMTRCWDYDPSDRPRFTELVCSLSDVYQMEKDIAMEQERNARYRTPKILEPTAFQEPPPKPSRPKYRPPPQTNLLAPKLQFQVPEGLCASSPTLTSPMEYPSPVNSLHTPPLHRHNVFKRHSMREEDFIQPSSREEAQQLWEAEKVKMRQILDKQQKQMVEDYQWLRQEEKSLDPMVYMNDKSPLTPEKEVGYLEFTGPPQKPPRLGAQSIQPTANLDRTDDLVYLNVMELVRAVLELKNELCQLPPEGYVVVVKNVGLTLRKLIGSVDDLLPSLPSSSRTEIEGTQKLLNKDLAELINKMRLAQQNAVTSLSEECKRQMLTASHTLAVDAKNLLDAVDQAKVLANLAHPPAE
Put plainly: Pyk2 activation in intact cells. The class given is cell-based.

A short description of data set [7]: Solubility. It is filed as physicochemical. The source says: (§1) The most successful molecules underwent in vitro ADMET assays, including mouse and human metabolic stability, solubility (pH 7.4), Caco-2 (permeability), and log D determination. We will evaluate lead candidates for drug-like properties, including aqueous solubility (PBS buffer, pH 7.4), pKa, lipophilicity, chemical stability at pH 1 (the pH of the stomach), pH 6 (small intestine), A-B partitioning (octanol-PBS buffer, pH 7.4), liver microsomal stability as an indication of potential first-pass metabolism (microsomes from mouse and humans), substrate potential for isoforms of human P450 such as CYP3A4, cell permeability (Caco-2 cells), hERG toxicity (cell lines), mutagenesis, and plasma protein binding (mouse & human). […]. Computed physical properties that correlate with good oral bioavailability and cell permeability will be calculated for new compounds throughout the optimization process and will […] also influence lead compound selection as will ligand efficiency (LE) and lipophilic efficiency (LLE). Molecules will be administered by gavage to mice at 30 mg/kg, and we will measure plasma levels at 2 and 4 hours. The most successful molecules in this regard (with the highest levels at 2 and 4 hours) may be further modified by developing combinations of modifications at different parts of the molecule.

Data set [8] can be described thus: log D determination. The class given is physicochemical. As to conditions: pH 7.4.
Description: as §1

Data set [9] in a line: Plasma protein binding. The class given is in vitro ADME.
Description: as §1

Data set [10] is described as follows: in vivo. As to conditions: mouse.
A short description of data set [11]: Mini-Ames.
Description: as §1

The nature of data set [12]: Human plasma stability. It is filed as in vitro ADME. As to conditions: at 6 h.
The nature of data set [13]: B/P ratio and blood-brain barrier crossing. It is filed as in vivo. The following applies: in vivo.
Data set [14] concerns SH-SY5Y human neuronal cells. Put plainly: Cytotoxicity in SH-SY5Y cells. It is filed as cell-based.
In data set [15] the test system is ischemic ileal mucosal ulcers. Put plainly: Ischemic ileal ulcer model (acetic-acid-soaked discs on serosa). The following applies: mice; 40: 30 mg/kg/day by osmotic minipump, 4 days; 30 mg/kg/day. It is filed as in vivo, mice.
In data set [16] the test system is mice. Put plainly: Tolerability and toxicity in mice.
Data set [17] has as its target hERG (Homo sapiens, UniProt Q12809). Put plainly: hERG toxicity. It is filed as cell-based. As to conditions: human.
Description: as §1
(Block of hERG is tested as a sign of cardiac risk.)

In data set [18] the test system is mice. As to conditions: mouse, in vivo.
A short description of data set [19]: Cytotoxicity (cells not named). It is filed as cell-based.
Data set [20] has as its system IMR-90 human pulmonary fibroblasts. Put plainly: Cytotoxicity in IMR-90 cells. The class given is cell-based.
The conditions of data set [21]: mouse, in vivo; for course of plasma levels after enteral dosing (in words): 10 mg/kg.

T1 sequence (P12931 whole entry): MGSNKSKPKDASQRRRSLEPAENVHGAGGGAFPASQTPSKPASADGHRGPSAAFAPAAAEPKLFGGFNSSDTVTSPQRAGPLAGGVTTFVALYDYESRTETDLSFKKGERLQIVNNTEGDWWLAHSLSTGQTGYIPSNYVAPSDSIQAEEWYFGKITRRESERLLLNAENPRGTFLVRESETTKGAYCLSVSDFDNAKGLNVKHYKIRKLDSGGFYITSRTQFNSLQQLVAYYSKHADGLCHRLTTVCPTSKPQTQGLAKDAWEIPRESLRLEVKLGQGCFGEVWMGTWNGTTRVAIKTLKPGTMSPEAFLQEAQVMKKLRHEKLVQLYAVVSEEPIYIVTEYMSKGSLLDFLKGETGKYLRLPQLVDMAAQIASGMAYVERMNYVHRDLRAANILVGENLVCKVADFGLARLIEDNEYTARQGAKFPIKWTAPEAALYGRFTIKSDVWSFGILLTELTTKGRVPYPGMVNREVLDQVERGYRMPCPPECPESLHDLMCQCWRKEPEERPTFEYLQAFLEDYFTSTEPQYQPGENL
Chain of hERG (Q12809 whole entry): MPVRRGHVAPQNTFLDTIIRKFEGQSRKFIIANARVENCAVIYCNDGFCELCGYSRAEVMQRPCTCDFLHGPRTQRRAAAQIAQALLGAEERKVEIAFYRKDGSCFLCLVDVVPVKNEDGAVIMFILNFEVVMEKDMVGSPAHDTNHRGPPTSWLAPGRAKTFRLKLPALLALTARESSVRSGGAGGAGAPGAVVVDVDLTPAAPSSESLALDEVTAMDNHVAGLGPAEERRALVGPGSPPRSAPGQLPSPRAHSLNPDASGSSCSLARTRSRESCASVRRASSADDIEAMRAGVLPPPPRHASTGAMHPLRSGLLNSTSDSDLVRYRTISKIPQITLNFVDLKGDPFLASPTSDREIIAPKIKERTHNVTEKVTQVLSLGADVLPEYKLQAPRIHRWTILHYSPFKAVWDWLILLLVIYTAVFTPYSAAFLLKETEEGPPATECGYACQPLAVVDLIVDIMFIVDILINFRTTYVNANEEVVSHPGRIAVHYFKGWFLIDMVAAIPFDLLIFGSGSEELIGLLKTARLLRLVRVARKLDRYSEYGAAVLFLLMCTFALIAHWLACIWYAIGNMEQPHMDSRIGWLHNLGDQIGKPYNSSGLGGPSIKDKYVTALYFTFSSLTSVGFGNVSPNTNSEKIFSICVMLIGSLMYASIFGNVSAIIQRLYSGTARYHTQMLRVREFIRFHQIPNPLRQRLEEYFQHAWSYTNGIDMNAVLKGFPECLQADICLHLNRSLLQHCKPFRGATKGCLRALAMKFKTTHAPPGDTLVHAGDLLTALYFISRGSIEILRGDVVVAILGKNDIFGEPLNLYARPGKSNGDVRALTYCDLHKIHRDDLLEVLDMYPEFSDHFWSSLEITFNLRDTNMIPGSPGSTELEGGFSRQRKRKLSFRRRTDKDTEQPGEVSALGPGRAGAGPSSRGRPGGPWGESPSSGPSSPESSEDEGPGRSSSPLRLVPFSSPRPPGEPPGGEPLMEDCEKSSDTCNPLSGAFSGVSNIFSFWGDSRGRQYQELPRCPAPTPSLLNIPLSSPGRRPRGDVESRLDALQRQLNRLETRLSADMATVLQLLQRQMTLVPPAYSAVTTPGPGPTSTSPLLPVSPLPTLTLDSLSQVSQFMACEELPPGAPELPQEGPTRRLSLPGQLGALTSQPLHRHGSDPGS

Consider `CCCCC(C)(O)C/C=C/[C@H]1[C@H](O)CC(=O)[C@@H]1CCCCCCC(=O)OC` (mixture of isomers) [Misoprostol], for which the serious side effects in data set [1] was 8%.
For the molecule `COc1ccc(C2CCCN2C(=O)Nc2cc(C(F)(F)F)ccc2N2CCOCC2)cc1` (stereo not drawn) [Compound 9], the “Src activation (in words)” value in data set [2] (intact cells) is recorded as “activating neither”. In addition, in data set [3], the “concentration as low as which FAK is activated” value is listed as 10 nM and the “FAK activation / FAK-Tyr-397 phosphorylation (in words)” value is given as “increased FAK-Tyr 397 phosphorylation”. In addition, the “intestinal mucosal healing in vivo (in words)” value in data set [4] is reported as “stimulated”. Further, in data set [5], the “monolayer wound closure / epithelial sheet migration (in words)” value is “stimulated monolayer wound closure”. Moreover, the “Pyk2 activation (in words)” value in data set [6] (intact cells) is listed as “activating neither”.
For the molecule `COc1ccc(C2CCCN2C(=O)CC(NC(N)=O)c2ccccc2Cl)cc1OC` (stereo not drawn) [Compound 10], the “concentration as low as which FAK is activated” value in [3] came to 10 nM.
For the molecule `O=C(Nc1cc(C(F)(F)F)ccc1C1CCOCC1)N1CCCC1c1ccccc1` (stereo not drawn) [Compound 14], in data set [3], the FAK-Tyr-397/FAK fold change was found to be 1.0 fold change and the “FAK activation / FAK-Tyr-397 phosphorylation (in words)” value was “reduced activation”.
On to `COc1ccc(CC(C)C(=O)Nc2ccc(N(C)C)cc2C)cc1` (stereo not drawn) [Compound 19], for which the “FAK activation / FAK-Tyr-397 phosphorylation (in words)” value in data set [3] is reported as “does not enhance FAK activation”.
Take `O=C(Nc1cc(C(F)(F)F)ccc1N1CCOCC1)N1CCCC1C1CCCCC1` (stereo not drawn) [Compound 21]: in [3], the “concentration level of FAK activation (in words)” value is “nanomolar to picomolar levels” and the “FAK activation / FAK-Tyr-397 phosphorylation (in words)” value is “increased; also recorded: stimulate FAK phosphorylation at remarkably low concentrations”. Also, the “monolayer wound closure / epithelial sheet migration (in words)” value in [5] was “promote the healing of intestinal epithelial wounds in vitro”.
Regarding `O=C(Nc1cc(F)ccc1N1CCOCC1)N1CCCC1c1ccncc1` (stereo not drawn) [Compound 25], the “FAK activation / FAK-Tyr-397 phosphorylation (in words)” value in data set [3] was “does not impair activity”.
As to `COc1ccc(C(CNC(=O)Nc2cc(C(F)(F)F)ccc2N2CCOCC2)N(C)C)cc1` (stereo not drawn) [Compound 31], the “FAK activation / FAK-Tyr-397 phosphorylation (in words)” value in data set [3] is listed as “seemed to activate FAK”.
The same measure, in the same setting: in the case of `O=C(Nc1cc(C(F)(F)F)ccc1N1CCOCC1)N1CCCC1C1CCCCC1` (stereo not drawn) [Compound 36] it was “seemed to activate FAK”; in that of `O=C(Nc1cc(C(F)(F)F)ccc1N1CCOCC1)N1CCCC1c1ccccc1` (stereo not drawn) [Compound 37], “seemed to activate FAK”.
Consider `CN(C)C(CNC(=O)Nc1cc(C(F)(F)F)ccc1N1CCOCC1)c1ccncc1` (stereo not drawn) [Compound 40], for which the “water solubility / need of DMSO (in words)” value in [7] is recorded as “does not require DMSO; also recorded: truly water soluble”. For the same molecule, in [2] (at 10 μM), the “Src activation (in words)” value is “does not activate”. Moreover, the “log D7.4” value in data set [8] was “log D7.4 = 2.87”. Also, in data set [9], the Plasma protein binding was 91.39%. The molecule also came in with a concentration at 4 days in data set [10] (1.25 mg/kg) of 26 ng/mL. In addition, the values for the half-life in data set [10] (T1/2) and in data set [10] (plasma half-life) were about 1.5 h and 1.5 h, respectively. Also, the Mini-Ames result in [11] is “negative”. In data set [12], this molecule yielded a Human plasma stability of 88.56% at 6 h. Moreover, in data set [13], the “blood-brain barrier crossing (in words)” value is reported as “cross the blood-brain barrier”. Besides, in [5] (100 nM), the “wound closure after two 2-hour exposures vs full 24 hours of exposure” value is recorded as “equivalent stimulation of wound closure”. In addition, in data set [5] (100 nM, medium changed back after exposure), the “wound closure at 24 hours after three-hour exposure vs 24 hours exposure” value is recorded as “same effect as 24 hours”. Further, the “wound closure with proliferation blocked by hydroxyurea (in words)” value in data set [5] (hydroxyurea present) was “still stimulates Caco-2 monolayer wound closure”. Further, the “monolayer wound closure / epithelial sheet migration (in words)” value in data set [5] is listed as “stimulates wound closure; also recorded: promotes epithelial monolayer wound healing; also recorded: dose-responsive stimulation”. In addition, the “Cytotoxicity (LD50)” value in data set [14] and in [20] (IMR90) was “SYSY (LD50)~1 mM” throughout. Besides, the “concentration at which cytotoxicity is displayed” value in [14] and in data set [20] (IMR-90) was 1000 µM each time. Moreover, the “cytotoxic concentration as multiple of the 100 pM that activates FAK” value in [14] and in [20] (IMR-90) was 10^7 × in each case. For the same molecule, the “ischemic ulcer healing (in words)” value in [15] is “much smaller ulcers; also recorded: acceleration of healing”. In data set [16], this molecule gave a lethal single dose of 480 mg/kg. The hERG entry in data set [17] is reported as “hERG > 30 μM”. The “neurotoxicity (in words)” value in data set [18] was “no neurotoxicity was detected”. In addition, the “renal/hepatic histology, creatinine, ALT (in words)” value in data set [18] is listed as “normal”. In addition, the “serum chemistries (in words)” value in data set [18] (120 mg/kg) was “normal”. For the same molecule, the “Pyk2 activation (in words)” value in [6] (at 10 μM) is given as “does not activate”. Also, the “cytotoxicity (in words)” value in data set [19] is given as “no cytotoxicity at 10000× higher than effective doses; also recorded: neither cytotoxic nor carcinogenic”. Also, the “course of plasma levels after enteral dosing (in words)” value is reported as “decline by two hours” in [21] and “decrease by 2 hours” in data set [21] (2 h). Also, the “plasma level after 240 mg/kg as multiple of therapeutic plasma level” value in [21] (1 h) is on record as ~6*10^6 ×.
Turning to `O=C(Nc1ccccc1N1CCOCC1)N1CCCC1c1ccncc1` (stereo not drawn) [Compound 46], in data set [3], the FAK-Tyr-397/FAK fold change is given as 1.1 fold change and the “FAK activation / FAK-Tyr-397 phosphorylation (in words)” value is recorded as “did not induce FAK phosphorylation”.
On the same counts, the results for `CCN(C(=O)Nc1ccccc1N1CCOCC1)C(C)c1ccccc1` (stereo not drawn) [Compound 48] are 1.1 fold change and “did not induce FAK phosphorylation”.
For the molecule `O=C(Nc1cc(C(F)(F)F)ccc1N1CCOCC1)N1CCCC1c1ccc(O)cc1` (stereo not drawn) [Compound 49], the FAK-Tyr-397/FAK fold change in data set [3] is on record as 1.1 fold change.

Broadly, the half-life is how long it takes for the measured level to halve. Read a low half-life as fast loss.
